Assay results as given in EP1808181A1, “Polysaccharide-cyclodextrin conjugates” (B. BRAUN MELSUNGEN AG, priority 2006, dated 2007).
Values after ≈ are worked out from the molar mass of the structure shown.

What was measured:
Humane Erythrozyten = assay: Haemolysis of washed human erythrocytes by cyclodextrin derivatives; type: cell-based, menschlicher; settings: washed human erythrocytes (0,25%), 10 mM isotonic phosphate buffer pH 7,4, 37°C/30 min; read graphically against complete lysis in water; read-out: Cyclodextrin-Konzentration (frei bzw.gebunden) zur halb-maximalen Hämolyse
Procedure: (§1) Die Hämolyserate der in Tabelle III aufgeführten Cyclodextrin-Derivate wurde wie folgt bestimmt. Humane Erythrozyten wurden aus Citratblut durch Zentrifugation gewonnen (1000 x g / 10 Minuten), in 10 mM isotonem Phosphatpuffer (pH 7,4) aufgenommen und dreimal gewaschen und in diesem Puffer auf einen Hämatokrit von 5% eingestellt. Aliquote der gewaschenen Erythrozyten (0,1 ml) wurden zu 4 ml der in der Tabelle 3 aufgelisteten Cyclodextrin-Derivate (jeweils 5 unterschiedliche Konzentrationen) zugegeben, gemischt und 30 Minuten bei 37°C und gelegentlichem leichten Schütteln inkubiert. Nach abermaliger Zentrifugation (1000 x g / 10 Minuten) wurde das freigesetzten Hämoglobin im Überstand spektralphotometrisch bei 543 nm bestimmt. Die Hämolyseraten wurde aus den erhaltenen Absoptionswerten im Vergleich mit einer kompletter […] in Wasser ermittelt und die Cyclodextrin- Konzentrationen mit halbmaximaler Hämolyse graphisch ermittelt.
(§2) Tabelle III : Hämolyse gewaschener menschlicher Erythrozyten (0,25%) in 10 mM isotonem Phosphatpuffer (pH 7,4) bei 37°C/30 Minuten durch Cyclodextrin-Derivate

physchem = settings: water
[1] = Haemolysis of washed human erythrocytes by cyclodextrin derivatives; type: cell-based, menschlicher; settings: washed human erythrocytes (0,25%), 10 mM isotonic phosphate buffer pH 7,4, 37°C/30 min; read graphically against complete lysis in water; read-out: Cyclodextrin-Konzentration (frei bzw.gebunden) zur halb-maximalen Hämolyse
Procedure: as §1, §2

Compound | HC50 (Humane Erythrozyten) [mM] | also measured
2-HP-β-Cyclodextrin | 10 | –
CC(=O)[C@H]1CC[C@H]2[C@@H]3CCC4=CC(=O)CC[C@]4(C)[C@H]3CC[C@]12C [Progesteron] | – | solubility thermodynamic at 72 h (physchem): 15 µg/mL (≈ 47.7 µM)
OC[C@H]1O[C@@H]2O[C@H]3[C@H](O)[C@@H](O)[C@@H](O[C@H]4[C@H](O)[C@@H](O)[C@@H](O[C@H]5[C@H](O)[C@@H](O)[C@@H](O[C@H]6[C@H](O)[C@@H](O)[C@@H](O[C@H]7[C@H](O)[C@@H](O)[C@@H](O[C@H]8[C@H](O)[C@@H](O)[C@@H](O[C@H]1[C@H](O)[C@H]2O)O[C@@H]8CO)O[C@@H]7CO)O[C@@H]6CO)O[C@@H]5CO)O[C@@H]4CO)O[C@@H]3CO [β-Cyclodextrin] | – | HC50 at 0.5 h [1]: 5 mM
α-Cyclodextrin | 11 | –
γ--Cyclodextrin | 30 | –
